Measurements taken from patent US20230041065A1, “METHODS FOR GENERATING HEMATOPOIETIC STEM CELLS” (The Brigham and Women`s Hospital, Inc., priority 2019, published 2023).

System: E11.5 AGM-derived HSCs
Test: Serial transplantation of E11.5 AGM-derived HSCs into irradiated mice
Assay type: in vivo, mouse
Description: Pulsating blood vessels like conditions were stimulated in vitro using Flexcell FX-4000 machine. To analyze roles of pharmacological targets in regulating the endothelial-to-HSC transition, mouse embryo-derived AGM or whole mouse embryo were exposed ex vivo with biomechanical stretching, chemicals, or drugs. Next, hematopoietic colony formation assays were performed by incubating mouse AGM-derived cells in StemCell M3434 media for seven days. Serial transplantation of AGM-derived HSCs in lethally irradiated SJL mice were performed. The stem cell frequency upon biomechanical stretching was analyzed using a limiting dilution assay. To characterize properties of AGM-HSC-derived blood cells in primary transplants, percentage chimerism and reconstitution was measured using FACS, globin transcripts were analyzed using quantitative reverse transcriptase-PCR, myeloperoxidase amount was measured using PicoKine ELISA kit, TCR-β rearrangement was analyzed using PCR for TCR-β locus, pre-immune IG detection was analyzed using Thermo-Fisher Mouse Ig Isotyping kit, and delayed-type hypersensitivity was analyzed by injecting sheep RBC (Rockland Immunochemicals) in the footpad of pre-sensitized mice.
For primary transplantation, three-embryo equivalents of untreated or treated (cyclic strain or 25 μM Yoda1) AGMs plus splenic helper cells (˜500,000 per mouse) were injected into lethally irradiated (split dose […]) Cd45.1 (SJL) mice by retro-orbital injection. For secondary and tertiary transplants, the bone marrow was isolated (legs, arm, pelvic bone, spine, sternum) from the transplanted mice. The bone marrow was loaded on a Ficoll gradient (Histopaque®-1083, Sigma-Aldrich), and the cells from the buffy coat incubated with biotin-conjugated lineage antibodies and streptavidin microbeads (Miltenyi Biotec). Next, the lineage negative (Lin^−) cells were separated with MACS LS Columns (Miltenyi Biotec), and the donor Cd45.2 Lin^−Sca1+c-Kit^+ (LSK) cells sorted with a MoFlo Beckman Coulter sorter. Subsequently, the sorted Cd45.2 LSK cells were mixed with Cd45.1 splenic helper cells (˜500,000 per mouse) and transplanted into Cd45.1 irradiated (split dose […]) SJL mice by retro-orbital injection.
AGM cells from explants and ex vivo were stained with Sca1-Pacific-Blue (E13-161.7, Biolegend) and Flk1-APC-Cy7 (Avas 12α1, BD). Blood from transplanted mice was stained with the following antibody cocktail: Cd45.2-Pacific-Blue (104, Biolegend), Cd45.1-FITC (A20, Biolegend), Cd3-PE (145-2C11, Biolegend), Cd8-PE (53-6.7, Biolegend), Mac1-APC (M1/70, Biolegend), Gr1-APC (108412, Biolegend), Cd19-APC-CY7(6D5, Biolegend), B220-APC-CY7 (RA3-6B2, Biolegend). […]

## Clc1cccc(Cl)c1CSc1nnc(-c2cnccn2)s1 [Yoda1, 2-[5-[[(2,6-Dichlorophenyl)methyl]thio]-1,3,4-thiadiazol-2-yl]-pyrazine]
Primary transplant, week 16
  percentage reconstitution to myeloid cells, T-cells and B-cells: stimulates the formation of HSCs that reconstitute to the blood
Primary transplant, weeks 8-16, treated E11.5 AGM donor cells
  percentage peripheral blood chimerism: stimulates the formation of HSCs
Secondary transplant, week 12
  percentage reconstitution to myeloid cells, T-cells and B-cells: produces HSCs that can serially reconstitute to the blood
Secondary transplant, weeks 8-12
  percentage peripheral blood chimerism: produces HSCs that have serial engraftment and self-renewal capacities
